Legend:
[1] = Inhibition of EGFR T790M/L858R double mutant (unknown origin) transfected in mouse BAF3 cells assessed as reduction in cell viability after 72 hrs by MTS assay
[2] = Inhibition of EGFR L858R mutant (unknown origin) transfected in mouse BAF3 cells assessed as reduction in cell viability after 72 hrs by MTS assay
[3] = Inhibition of EML4/ALK (unknown origin) transfected in mouse BAF3 cells assessed as reduction in cell viability after 72 hrs by MTS assay

| Compound | EC50 [1] [µM] | EC50 [2] [µM] | EC50 [3] [µM] |
| --- | --- | --- | --- |
| CCC(=O)Nc1cc(Nc2ncc(Cl)c(Nc3ccccc3S(=O)(=O)C(C)C)n2)c(OC)cc1N(C)CCN(C)C | 0.972 | 0.666 |  |
| C=CC(=O)Nc1cc(Nc2nccc(-c3cn(C)c4ccccc34)n2)c(OC)cc1N(C)CCN(C)C [AZD-9291] |  |  | 1.75 |
| C=CC(=O)Nc1cc(Nc2nccc(Nc3ccccc3P(C)(C)=O)n2)c(OC)cc1N(C)CCN(C)C |  |  | > 5 |
| C=CC(=O)Nc1cccc(Oc2nc(Nc3ccc(N4CCN(C)CC4)cc3OC)ncc2Cl)c1 |  |  | 6.26 |
